The source of these data is patent US8765783B2, “Pharmaceutical composition for treatment of disease due to vascular constriction or vasodilation” (Ono Pharmaceuticals Co., Ltd., priority 2002, dated 2014).

For one test, the system named is SD rat. In words: Increase of rat blood pressure by S1P. The format is in vivo. To be noted: anesthetized male SD rat. The protocol: Male SD Rat (8 weeks old-10 weeks old) was anesthetized by injection of pentobarbital sodium (50 mg/mL/kg), after midline incision in the cervical region, trachea was exposed by exfoliation of tracheal muscle layer and cannula made of polyethylene was inserted into trachea. Next, catheter made of polyethylene was inserted into the common carotid artery and the common jugular vein. Catheter inserted into the common carotid artery was connected to the piezotransducer and the blood pressure was recorded on the recorder through strain compression amplifier. After the above mentioned operation was finished, in the case of the spinal chord was broken, the spinal chord was broken by insertion of stainless pole into the spinal chord cavity. After the spinal chord was broken, tracheal cannula was immediately connected into the artificial breathing device for small animals and artificial ventilation was performed under the conditions of a ventilatory volume 6 mL/kg and velocity 60 times/min. After then, S1P was administered and we confirmed blood pressure was increased. […] As a result, the compound (3) inhibited the increase of blood pressure by S1P.

Test [1] has as its system rat removed thoracic aorta. Put plainly: Vasoconstrictive action of rat removed thoracic aorta by S1P or phenylephrine. To be noted: for constriction of rat thoracic aorta: phenylephrine 10 μM (positive control), S1P 10 μM. From the text:
The removed thoracic aorta of euthanized SD rat (7-13 weeks old) was immersed in Krebs-Henseleit solution [112 mmol/L sodium chloride, 5.9 mmol/L potassium chloride, 2.0 mmol/L calcium chloride, 1.2 mmol/L magnesium chloride, 1.2 mmol/L monobasic sodium phosphate, 25.0 mmol/L sodium hydrogen carbonate NaHCO3, 11.5 mmol/L glucose, saturated by mixed gas (95% O2+5% CO2)]. They were divided by 3-4 mm with ophthalmic scissors and made as vortical samples. Made samples were hung in magnus tube (volume: 10 mL) filled with Krebs-Henseleit solution [37±1° C., aerated with mixed gas (95% O2+5% CO2)] using a hook. Next, they were loaded with 0.5 g resting tension stabilized for about 60 minutes, then constrictive movement was recorded on a recorder through strain compression amplifier (AP-601G, Nihon Kohden) from Force displacement transducer (FD pickup TB-611T). Sympathetic nerve stimulant, phenylephrine, (10 μM) is used as positive control for constriction action. After that, S1P (10 μM) adding, vasoconstrictive action was measured. As a result, phenylephrine and S1P constricted rat thoracic aorta.

Test [2] concerns canine removed basilar artery. Put plainly: Vasoconstrictor action of canine removed basilar artery by S1P. The arrangement: species or system canine (beagle). To be noted: for constriction of canine basilar arteries: serotonin 1 μM (positive control), S1P 10 μM; for inhibitory effect on vasoconstrictive action of canine basilar artery by S1P: 10 μM test compound added 20 minutes after S1P (10 μM). An excerpt: (§1) The removed basilar arteries of euthanized male beagle (12 months old) was immersed in Krebs-Henseleit solution [112 mmol/L sodium chloride, 5.9 mmol/L potassium chloride, 2.0 mmol/L calcium chloride, 1.2 mmol/L magnesium chloride, 1.2 mmol/L monobasic sodium phosphate, 25.0 mmol/L sodium hydrogen carbonate NaHCO3, 11.5 mmol/L glucose, saturated by mixed gas (95% O2+5% CO2)]. They were divided by 3-4 mm with ophthalmic scissors and made as ringed samples. Made ringed tissues were hung in magnus tube (volume: 10 mL) filled with Krebs-Henseleit solution [37±1° C., aerated with mixed gas (95% O2+5% CO2)] using a hook. Next, they were loaded with 1 g resting tension stabilized for about 60 minutes, then constrictive movement was recorded on a recorder through strain compression amplifier (AP-601G, Nihon Kohden) from Force displacement transducer (FD pickup TB-611T). Serotonin (1 μM) is used as positive control for constriction action. After that, S1P (10 μM) adding, vasoconstrictive action was measured. As a result, serotonin and S1P constricted basilar arteries.
As a result, test compounds having EDG-5 antagonist activity inhibited vasoconstrictive action by S1P.

Test [3] relates to canine removed renal artery. Put plainly: Vasoconstrictor action of canine renal artery by S1P. The arrangement: species or system canine (beagle). To be noted: for constriction of canine renal arteries: serotonin 1 μM (positive control), S1P 10 μM; for inhibitory effect on vasoconstrictive action of canine renal arteries by S1P: 10 μM test compound added 40 minutes after S1P.
Excerpt: as §1, with “renal” for “basilar”

A further test deals with removed rat heart. Put plainly: Removed rat heart (Langendorff heart). To be noted: Langendorff heart mode; for contractive force of heart muscle: EDG-5 antagonist. From the text: Rat (CD(SD)IGS, male, Charles River Japan Inc., 8 weeks old-10 weeks old, 300-450 g) was anesthetized by diethylether, opened the abdominal cavity, injected intravenously with heparin and then, exsanguinated to death. The heart was quickly removed by opening the chest cavity and the removed heart was immersed into cooled Krebs-Henseleit solution. The tissues were trimmed away under the cooling, aortic arches were inserted into the heart functional measuring equipment and fixed with sutures without leaking out. The rat heart function was measured using the heart functional measuring equipment (model IPH-W2, Labo-support). The equipment was used in the Langendorff Heart mode (non-working heart mode) and load was 68-70 mmHg. […] Catheter filled with physiological saline was inserted into the left ventricle, the catheter was connected to the piezotransducer (DX-100, Nihon Kohden) and the left ventricle pressure (LVP) was measured through strain compression amplifier (AP-601G, Nihon Kohden). Heart rate was calculated using LVP data with the heart rate measuring equipment (AT-601G, Nihon Kohden) and dLVP/dt was calculated with differential processor (EQ-641G, Nihon Kohden). Probes of electromagnetic flowmeter (model FF-020T, inside diameter 2 mm, Nihon Kohden) were set on the way to the passage of nutrient solution and the flow rate of nutrient solution (corresponding the blood flow rate of coronary artery) was measured using electromagnetic flowmeter (MFV-3100, Nihon Kohden). Administration of S1P and the compounds was performed by injection of dilution with nutrient solution into the passage of nutrient solution using infusion pump. The injection rate of drug solution was set as the flow rate of nutrient solution before starting of administration. […] Using the above mentioned model, effect of EDG-5 antagonist on heart function was examined. […] EDG-5 antagonist, the compound (1), the compound (2) and the compound (3) increased the flow rate of nutrient solution. In addition, they increased contractive force of heart muscle at the same time. […] It was considered that S1P had no direct chronotropic action and inotropic action on pacemaker and heart muscle and S1P had lowering effect on heart function by contracting the coronary blood vessels and ischemia.

The target of the next test is T1, human EDG-5 (Homo sapiens, UniProt O95136).
T1 construct: expressed in transfected cells; host or cells: CHO cells
In words: Antagonistic activity for EDG-5 by monitoring concentration change of intracellular calcium ion. It is filed as cell-based. To be noted: CHO cells overexpressing human EDG-5; S1P 100 nM. The protocol:
Chinese hamster ovary (CHO) cells overexpressed human EDG-5 gene were cultured in Ham's F12 medium (GIBCO BRL) containing 10% FBS (fetal bovine serum), penicillin/streptomycin, and blasticidin (5 μg/ml). Cultured cells were incubated in a Fura2 (5 μM)-AM solution [Ham's F12 medium containing FBS (10%), HEPES buffer (20 mM, pH7.4), and probenecid (2.5 mM)] at 37° C. for 60 minutes. Then they were washed once with a Hank's solution (2.5 mM) containing probenecid and immersed into the same solution. A plate was set on a fluorescent drug screening system, and the concentration of intracellular calcium ion was measured for 30 seconds with no stimulation. A solution of a compound (dimethyl sulfoxide (DMSO) solution of 1 nM to 10 μM at the final concentration) to be tested was added. After lapse of 5 minutes, S1P (final concentration: 100 nM) was added, the concentration of intracellular calcium ion before and after the addition was measured every 3 seconds (excitation wave length: 340 nm and 380 nm; fluorescent wave length: 500 nm). […]
(In general: Calcium assays in cells follow changes in intracellular calcium, usually with a dye or a luminescent sensor.)

In a further test the target is T2, human EDG-3 (Homo sapiens, UniProt Q99500).
T2 construct: expressed in transfected cells
In words: Antagonist evaluation for EDG-3, intracellular calcium ion. To be noted: cells overexpressing human EDG-3. It is filed as cell-based.

Another test deals with canine thoracic aorta. In words: Vasoconstrictive action of canine thoracic aorta by S1P.
Another test has as its target T3, human EDG-1 (Homo sapiens, UniProt P21453).
T3 construct: expressed in transfected cells
In words: Antagonist evaluation for EDG-1, intracellular calcium ion. As to conditions: cells overexpressing human EDG-1. The format is cell-based.

In test [4] the test system is rabbit vasoconstrictive action by S1P. In words: Rabbit vasoconstrictive action by S1P.
The next test deals with rabbit thoracic aorta. In words: Vasoconstrictive action of rabbit thoracic aorta by S1P.
Test [5] relates to rat removed basilar artery. Put plainly: Vasoconstrictor action of rat removed basilar artery. As to conditions: 3 μM (FIG. 3, FIG. 4). The protocol: Basilar arteries were removed from male rat (CD(SD)IGS, male, Charles River Japan, Inc., 8 weeks old-10 weeks old, 350-450 g) and quickly immersed in cooled Krebs-Henseleit solution. Removed basilar arteries were divided by about 3 mm width with ophthalmic scissors and made as ringed samples. Samples hung in micro tissue organ bath (MTOB-1: Preimetech Corp.) filled with Krebs-Henseleit solution (37° C.). They were loaded with about 0.2 g resting tension stabilized for about 60 minutes, and then constrictive movement was recorded on a recorder (linearcoda WR3320: Graphtec Corp.) through strain compression amplifier (AP-601G, Nihon Kohden) from micro tissue organ bath.

Test [6] has as its system removed rabbit portal vein/mesenteric vein. Put plainly: Constriction of the removed rabbit vein by S1P. The protocol:
The portal vein/mesenteric vein was removed form male rabbit (NZ White, about 2 kg) under anesthesia and vertical sample of width 2-3 mm and length 3-4 mm was made. Made samples were hung in magnus tube (volume: 5 mL) filled with Krebs-Henseleit solution (37° C.) using a hook. They were loaded with 0.5 g resting tension stabilized for about 60 minutes, then constrictive movement was recorded on a recorder (linear recorder WR3320: Graphtec Corp.) through strain compression amplifier (AP-601G, Nihon Kohden) from Force displacement transducer (FD pickup TB-611T).

What is called IC50 is the midpoint of a concentration-inhibition curve.

“Also recorded” adds a separate entry of the source.

T2 sequence (Q99500 whole entry): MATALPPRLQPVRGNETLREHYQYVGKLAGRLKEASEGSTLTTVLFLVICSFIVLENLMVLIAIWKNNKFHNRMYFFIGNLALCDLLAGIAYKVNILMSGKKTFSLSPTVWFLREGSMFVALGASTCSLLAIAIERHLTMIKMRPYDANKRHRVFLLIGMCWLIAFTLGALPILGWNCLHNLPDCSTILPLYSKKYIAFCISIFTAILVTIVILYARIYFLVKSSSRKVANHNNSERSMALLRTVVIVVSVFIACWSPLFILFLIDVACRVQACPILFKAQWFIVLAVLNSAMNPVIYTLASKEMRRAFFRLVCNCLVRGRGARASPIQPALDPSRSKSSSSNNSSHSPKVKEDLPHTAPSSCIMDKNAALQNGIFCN
T1 sequence (O95136 whole entry): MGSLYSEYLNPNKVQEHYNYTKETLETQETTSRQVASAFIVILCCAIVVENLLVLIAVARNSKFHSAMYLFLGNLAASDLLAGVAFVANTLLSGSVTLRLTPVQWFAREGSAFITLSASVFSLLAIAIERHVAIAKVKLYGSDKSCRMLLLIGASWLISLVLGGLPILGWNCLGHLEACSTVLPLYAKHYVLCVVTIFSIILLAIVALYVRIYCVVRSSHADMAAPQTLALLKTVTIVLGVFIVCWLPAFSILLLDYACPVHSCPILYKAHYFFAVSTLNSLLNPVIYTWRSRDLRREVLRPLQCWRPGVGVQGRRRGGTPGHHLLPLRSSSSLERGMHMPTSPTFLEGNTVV
T3 sequence (P21453 whole entry): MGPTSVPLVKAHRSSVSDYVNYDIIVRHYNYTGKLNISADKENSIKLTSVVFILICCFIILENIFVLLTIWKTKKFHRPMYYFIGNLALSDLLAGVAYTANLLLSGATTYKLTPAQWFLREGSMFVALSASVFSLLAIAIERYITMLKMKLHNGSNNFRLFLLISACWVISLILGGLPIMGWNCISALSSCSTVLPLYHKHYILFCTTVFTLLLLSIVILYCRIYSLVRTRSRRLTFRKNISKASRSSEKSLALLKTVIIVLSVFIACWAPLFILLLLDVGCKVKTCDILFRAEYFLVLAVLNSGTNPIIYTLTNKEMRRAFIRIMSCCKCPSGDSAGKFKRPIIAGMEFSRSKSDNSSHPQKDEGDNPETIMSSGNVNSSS

With `CCCCCCCCCCCCC/C=C/[C@@H](O)[C@@H](N)COP(=O)(O)O` [Example S1P, (2S,3R,4E)-2-amino-3-hydroxyoctadeca-4-enyl-1-phosphate], the “effect of S1P on rat blood pressure” value in the test on SD rat was “increased”. In addition, the “constriction of rat thoracic aorta” value in [1] is listed as “constricted”. Further, the “constriction of canine basilar arteries” value in [2] is on record as “constricted”. In addition, the “constriction of canine renal arteries” value in test [3] is “constricted”. Moreover, the “effect of S1P on contractive force of heart muscle” value in the test with removed rat heart is on record as “dose-dependently decreased”.
In the case of `Cc1nn(C)c2nc(NNC(=O)Nc3c(Cl)cncc3Cl)cc(C(C)C)c12` [compound (1), N-(1H-1,3-dimethyl-4-isopropylpyrazolo[3,4-b]pyridin-6-yl)amino-N′-(3,5-dichloropyridin-4-yl)urea], in test [1] (10 μM test compound added an hour after S1P (10 μM)), the “inhibition of vasoconstrictive action of rat thoracic aorta by S1P” value is listed as “specifically inhibited; also recorded: suppression”. Further, the “inhibition of vasoconstrictive action of rat thoracic aorta by phenylephrine” value in test [1] (10 μM test compound, phenylephrine 10 μM) is on record as “did not inhibit; also recorded: not showing the suppression”. Moreover, the IC50 at human EDG-5 was 0.5 µM; at human EDG-3, greater than 10 µM; on human EDG-1 it was greater than 10 µM. For the same molecule, the “inhibitory effect on vasoconstrictive action of canine basilar artery by S1P” value in [2] is on record as “inhibited; also recorded: suppression”. In addition, the “inhibitory effect on vasoconstrictive action of canine thoracic aorta by S1P” value in the test with canine thoracic aorta is “showed inhibitory effect”. Besides, the “inhibitory effect on vasoconstrictive action of canine renal arteries by S1P” value in test [3] is “inhibited; also recorded: suppression”. In addition, the “flow rate of nutrient solution (corresponding the blood flow rate of coronary artery)” value in the test with removed rat heart was “increased”. The “contractive force of heart muscle” value in the test with removed rat heart was “increased”. For the same molecule, the “inhibitory effect on rabbit vasoconstrictive action by S1P” value in test [4] was “showed inhibitory effect”. Also, the “inhibitory effect on vasoconstrictive action of rabbit thoracic aorta by S1P” value in the test with rabbit thoracic aorta is on record as “showed inhibitory effect”.
On to `O=C(Nc1cccc(C(F)(F)F)c1)N1CCC(O)(c2ccc(Br)cc2)CC1` [compound (2), 4-(4-bromophenyl)-4-hydroxy-N-(3-(trifluoromethyl)phenyl)-1-piperidinecarboxamide], for which the “inhibitory effect on vasoconstrictor action of rat removed basilar artery by S1P” value in test [5] is on record as “inhibitory effect; also recorded: suppression”. The “inhibitory effect on contraction of vein by S1P” value in [6] is “inhibitory effect; also recorded: suppression”. Further, the IC50 was 0.4 µM on human EDG-5, greater than 10 µM at human EDG-3 and greater than 10 µM on human EDG-1. Besides, the “inhibitory effect on vasoconstrictive action of canine basilar artery by S1P” value in test [2] was “inhibited; also recorded: suppression”. Further, the “inhibitory effect on vasoconstrictive action of canine renal arteries by S1P” value in test [3] is on record as “inhibited; also recorded: suppression”. Besides, the “flow rate of nutrient solution (corresponding the blood flow rate of coronary artery)” value in the test with removed rat heart is on record as “increased”. Besides, the “contractive force of heart muscle” value with removed rat heart is “increased”. Besides, the “inhibitory effect on rabbit vasoconstrictive action by S1P” value in [4] is on record as “showed inhibitory effect”.
`CNC[C@H](O)c1cccc(O)c1` [phenylephrine]: the “constriction of rat thoracic aorta” value in [1] is “constricted”.
For `NCCc1c[nH]c2ccc(O)cc12` [serotonin], in test [2], the “constriction of canine basilar arteries” value is given as “constricted”. Further, in [3], the “constriction of canine renal arteries” value was “constricted”.
